# Assay results reported in patent publication US20250295659A1, “METHODS FOR TREATING TRAUMATIC BRAIN INJURY” (The Regents of the University of California, priority 2021, published 2025).
# Entries after “also recorded” stand apart in the source; their conditions may differ.
# Legend:
# [1] = doses for FDA-approved treatments (cancer patients); cited from earlier work
# CCI-TBI in rats = assay: Elevated body swing test after CCI-TBI; format: in vivo, rat; details: 2 mg/kg i.p. single dose at 0 or 3 hrs post-TBI, 24 hrs after TBI, vs TBI/vehicle, P<0.05
# [2] = system: TBI (moderate lateral fluid percussion) in adult male Sprague-Dawley rats; assay: Morris Water Maze after moderate lateral fluid percussion TBI; format: in vivo, rat; details: LFP-TBI, 2 mg/kg i.p. single dose immediately after TBI, days 12 through 16 after TBI, vs TBI/vehicle, P<0.05
# Experimental: Moderate Lateral fluid percussion (LFP) was used to produce TBI in adult male Sprague-Dawley rats (weighing 300-350 grams). […] All of the following data were obtained using moderate LFP in adult rats. […] Sham and vehicle control animals received 5% DMSO in 0.9% saline. Morris Water Maze (MWM). Spatial memory was assessed using the MWM on days 12 through 16 after TBI. […] In brief rats were released from one of four starting points and allowed 120 s to find the escape platform. Rats received a total of 4 trials per day, one from each starting point, over 5 consecutive days. Behavioral assessments were performed by an individual blinded to the treatment groups. Mean latency to find the platform was calculated for each day to assess learning as well as the mean swimming speed to assess motor function. Statistical differences were determined using repeated measures ANOVA followed by Dunnett's post hoc test.
# [3] = system: CCI-TBI in rats, ipsilateral hippocampal CA2-3 neurons; assay: NeuN-positive hippocampal CA2-3 neuron counts after CCI-TBI; format: in vivo, rat; details: 2 mg/kg single dose at 0, 3 or 6 hrs post-TBI, 24 hrs after TBI, vs TBI/vehicle, P<0.05 or P<0.01
# Experimental: Brain sample preparation and immunohistochemistry. Anesthetized rats were perfused with saline followed by 4% PFA at day 1 or day 16. Brain sections (50 μm) are cut at −20° C. and incubated in 0.3% H2O2 for 10 minutes to quench endogenous peroxidase, incubated with 3% horse blocking serum for 20 minutes, and then incubated overnight in primary antibody (mouse anti-NeuN, mature neuron marker, 1:150, Millipore), then in biotinylated secondary antibody (Goat anti-mouse 1:1,000, Vector) for 0.5 h, then placed in Vectastain ABC reagent for 0.5 hr and incubated in peroxidase substrate 3, 3′-diaminobenzidine (DAB) solution for 10 min.
# Stereological cell counts. The total number of NeuN-positive neurons in CA2-3 of hippocampus were quantified bilaterally using stereological methods. The NeuN-positive cell counts were performed on a microscope (Nikon E600, Nikon) using commercial software (Stereo Investigator™8.0, Microbrightfield, Inc.). Serial sections cut at 50 μm thick were collected at Bregma −2.80 mm to Bregma −4.16 mm for a total of 10 sections per brain. […] Statistical differences are determined using ANOVA followed by Dunnett's post hoc test.
# Methods: One day after controlled cortical impact (CCI)-TBI, rats were anesthetized and transcardially perfused with PBS followed by 4% PFA. […] The NeuN^+ cells in ipsilateral hippocampal CA2-3 were quantified (n=4-8).
# c-Kit = c-Kit (Homo sapiens, UniProt P10721); details: target kinase c-Kit; cell-free; read-out: IC50 (nm) in vitro; cited from earlier work
# Sequence of c-Kit (P10721 26-976): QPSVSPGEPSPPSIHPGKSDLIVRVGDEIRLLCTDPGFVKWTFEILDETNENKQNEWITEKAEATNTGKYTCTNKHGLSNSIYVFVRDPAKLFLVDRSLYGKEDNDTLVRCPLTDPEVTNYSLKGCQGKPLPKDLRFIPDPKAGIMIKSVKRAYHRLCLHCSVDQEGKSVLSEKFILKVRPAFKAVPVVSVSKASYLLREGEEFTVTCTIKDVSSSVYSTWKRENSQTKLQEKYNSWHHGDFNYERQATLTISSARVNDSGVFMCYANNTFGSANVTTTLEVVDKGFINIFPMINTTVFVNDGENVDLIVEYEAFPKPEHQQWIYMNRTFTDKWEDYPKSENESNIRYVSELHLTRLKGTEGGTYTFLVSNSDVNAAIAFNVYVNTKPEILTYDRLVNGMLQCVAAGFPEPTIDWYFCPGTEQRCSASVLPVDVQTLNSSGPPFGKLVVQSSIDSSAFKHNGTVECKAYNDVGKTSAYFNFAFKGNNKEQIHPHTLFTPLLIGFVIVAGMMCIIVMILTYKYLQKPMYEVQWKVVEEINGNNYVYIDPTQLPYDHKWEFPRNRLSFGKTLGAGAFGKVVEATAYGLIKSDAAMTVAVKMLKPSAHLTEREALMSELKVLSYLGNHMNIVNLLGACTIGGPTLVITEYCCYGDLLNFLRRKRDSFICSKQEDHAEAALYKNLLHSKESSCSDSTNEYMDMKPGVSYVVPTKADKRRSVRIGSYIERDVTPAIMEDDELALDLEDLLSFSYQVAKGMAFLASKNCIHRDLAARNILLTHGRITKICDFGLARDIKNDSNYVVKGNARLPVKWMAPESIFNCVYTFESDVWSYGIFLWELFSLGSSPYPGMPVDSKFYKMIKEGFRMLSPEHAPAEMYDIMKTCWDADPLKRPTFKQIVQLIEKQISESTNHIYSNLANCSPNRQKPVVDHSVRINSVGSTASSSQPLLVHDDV
smiles,measurement,setting,value
Cc1cn(-c2cc(NC(=O)c3ccc(C)c(Nc4nccc(-c5cccnc5)n4)c3)cc(C(F)(F)F)c2)cn1 [Nilotinib],Common Side effects when used at the doses for FDA-approved treatments,[1],"Hypocalcemia, Hyponatremia, Back pain, Hyperkalemia, Hypokalemia,; also recorded: Pancytopenia, Anemia, Thrombocytopenia disorder, Leukopenia, Neutropenic; also recorded: disorder, Elevated serum lipase, Hypertension, Prolonged QT interval, Pharyngitis,; also recorded: Constipation, Muscle spasm, Pruritus of skin, Arthralgia, Myalgia, Vertigo"
Cc1ccc(C(=O)Nc2ccc(CN3CCN(C)CC3)c(C(F)(F)F)c2)cc1C#Cc1cnc2cccnn12 [Ponatinib],Common Side effects when used at the doses for FDA-approved treatments,[1],"Thromboembolic disorder, Arterial thrombosis, Hypertension, Thrombocytopenic; also recorded: disorder, Neutropenic disorder, Anemia, Skin rash, Leukopenia, Acute abdominal; also recorded: pain, Fatigue, Headache disorder, Dry skin, Constipation, Arthralgia, Nausea,; also recorded: Fever, Lymphopenia, Bone marrow depression, Diarrhea, Vomiting"
CNC(=O)c1cc(Oc2ccc(NC(=O)Nc3ccc(Cl)c(C(F)(F)F)c3)cc2)ccn1 [Sorafenib],Common Side effects when used at the doses for FDA-approved treatments,[1],"Hypophosphatemia, Anemia, Thrombocytopenia disorder, Leukopenia,; also recorded: Neutropenic disorder, Lymphopenia, Depression, Peripheral neuropathy,; also recorded: Hypertension, Hemorrhage, Stomatitis, Dyspepsia, Constipation, Gastrointestinal; also recorded: hemorrhage, Erectile dysfunction, Eczema, Exfoliative dermatitis, Erythema,; also recorded: Pruritus of skin, Alopecia"
Cc1nc(Nc2ncc(C(=O)Nc3c(C)cccc3Cl)s2)cc(N2CCN(CCO)CC2)n1 [Dasatinib],Common Side effects when used at the doses for FDA-approved treatments,[1],"Fever, Fatigue, Malaise; also recorded: Infection, Hypophosphatemia, Hypocalcemia, Body fluid retention, Anemia,; also recorded: Thrombocytopenia disorder, Neutropenic disorder, Peripheral neuropathy,; also recorded: Hemorrhage, Upper respiratory infection, Pleural effusions, Stomatitis,; also recorded: Constipation, Gastrointestinal hemorrhage, Pruritus of skin, Arthralgia, Dizziness,"
same,motor imbalance (biased swinging) in elevated body swing test,CCI-TBI in rats,significantly mitigated motor imbalance; also recorded: mitigates motor imbalance
same,latency to find the platform in the Morris Water Maze (spatial memory),[2],significantly improved performance; also recorded: reduces spatial memory deficits
same,survival of NeuN+ CA2-3 neurons in ipsilateral hippocampus,[3],significantly promotes survival of CA2-3 neurons; also recorded: decreases CA2-3 neuronal loss
CCn1c(=O)c(-c2cc(NC(=O)Nc3ccccc3)c(F)cc2Br)cc2cnc(NC)cc21 [Ripretinib],Common Side effects when used at the doses for FDA-approved treatments,[1],"Alopecia, Fatigue, Nausea, Acute abdominal pain, Constipation, Myalgia, Diarrhea,; also recorded: Anorexia, Palmar-plantar erythrodysesthesia, Vomiting, Elevated serum lipase,; also recorded: Hypophosphatemia"
FC(F)(F)c1ccc(CNc2ccc(Cc3c[nH]c4ncc(Cl)cc34)cn2)cn1 [Pexidartinib],Common Side effects when used at the doses for FDA-approved treatments,[1],"Blurred vision, decreased appetite, dizziness, fever, headache, itching or skin rash,; also recorded: fast heartbeat, swelling of the feet or lower legs"
Cn1cc(-c2cc3c(N4CCN(c5ncc([C@@](C)(N)c6ccc(F)cc6)cn5)CC4)ncnn3c2)cn1 [Avapritinib],Common Side effects when used at the doses for FDA-approved treatments,[1],"Edema, Nausea, Fatigue, General weakness, Acute confusion, Vomiting, Anorexia,; also recorded: Diarrhea, Hair discoloration, Eye tearing, Acute abdominal pain, Constipation, Skin; also recorded: rash, Dizziness, Anemia, Leukopenia"
CCN(CC)CCNC(=O)c1c(C)[nH]c(/C=C2\C(=O)Nc3ccc(F)cc32)c1C [Sunitinib],Common Side effects when used at the doses for FDA-approved treatments,[1],"Increased risk of bleeding, Pain in extremities, Peripheral edema, Back pain,; also recorded: Hypertension, Chronic heart failure; also recorded: Stomatitis, Dyspepsia, Constipation, Dry skin, Dyschromia, Arthralgia, Headache; also recorded: disorder, Dizziness, Fever, Fatigue, General weakness, Dysgeusia, Skin rash,; also recorded: Anorexia"
Cc1ccc(Nc2nccc(N(C)c3ccc4c(C)n(C)nc4c3)n2)cc1S(N)(=O)=O [Pazopanib],Common Side effects when used at the doses for FDA-approved treatments,[1],"Nausea, Vomiting, Diarrhea, Thrombocytopenia disorder, Leukopenia, Neutropenic; also recorded: disorder, Alopecia, Hypertension, Fatigue, Hemorrhage, General weakness, Skin; also recorded: rash, Proteinuria, Anorexia, Weight loss, Headache disorder, Hair bleaching, Pain,; also recorded: Myalgia, Thrombotic disorder"
COc1cc2nccc(Oc3ccc(NC(=O)NC4CC4)c(Cl)c3)c2cc1C(N)=O [Lenvatinib],IC50,c-Kit,100 nM
CNC(=O)c1cc(Oc2ccc(NC(=O)Nc3ccc(Cl)c(C(F)(F)F)c3)c(F)c2)ccn1 [Regorafenib],Common Side effects when used at the doses for FDA-approved treatments,[1],"Hypertension, Impaired wound healing, General weakness, Fatigue, Anorexia,; also recorded: Palmar-plantar erythrodysesthesia, Diarrhea, Stomatitis, Weight loss, Infection,; also recorded: Voice change, Hemorrhage, Fever, Skin rash, Headache disorder,; also recorded: Hypophosphatemia, Pain, Nausea, Acute abdominal pain, Anemia"
COc1cc(Nc2c(C#N)cnc3cc(OCCCN4CCN(C)CC4)c(OC)cc23)c(Cl)cc1Cl [Bosutinib],Common Side effects when used at the doses for FDA-approved treatments,[1],"Diarrhea, Nausea, Thrombocytopeniasorder, Vomiting, Kidney disease with; also recorded: reduction in GFR, Skin rash, Anemia, Fever, Fatigue, Neutropenic disorder,; also recorded: Abnormal hepatic function tests, Upper respiratory infection, Lower respiratory; also recorded: infection, General weakness, Anorexia, Pharyngitis, Back pain, Headache disorder,; also recorded: Dizziness, Dyspnea"
